Molecular target: T1, human GPR84 receptor (Homo sapiens, UniProt Q9NQS5)
T1 construct: host or cells: HEK293, transient transfection
Experiment: Gαi biosensor BRET assay in HEK293 cells (antagonism of ZQ-16)
Type: cell-based
Conditions: for inhibition at 2 µM: HEK293, single concentration 2 μM (designated A); for inhibition at 10 µM: HEK293, single concentration 10 μM (designated F); for IC50: HEK293 cells, antagonism of 200 nmol/L ZQ-16
From the text: Background—The following assays can be used for determination of GPR84 activation in living HEK293 cells. The Gai BRET biosensor (Gagnon et al., 2018; Gales et al., 2006. Nat StructMol Biol. 13, 778-86; Saulieres et al., 2012. Nat Chem Biol. 8, 622-30) allows to directly monitor GPR84-mediated activation of Gai. The Gai biosensor consists of a Rluc8-tagged Gαi2 subunit, a GFP10-tagged Gγ2 subunit, and an untagged Gβ1. Agonist stimulation and GPR84 activation triggers a physical separation between the RLuc8-Gαi donor and the GFP10-Gγ2 acceptor, resulting in a decrease in BRET signal whose amplitude is correlated to ligand efficacy (Gales et al., 2006). Moreover, signaling functions of GPCRs are tightly regulated by endocytosis, the targeting of receptors to endosomes and their sorting to lysosomes or recycling to the plasma membrane. The early endosomes (EEs) trafficking assay (Namkung et al., 2016. Nat Commun. 7, 12178) uses Rluc8-tagged GPR84 and Renilla GFP (rGFP) attached to the FYVE domain from human endofin/zinc finger FYVE domain-containing protein 16, which binds phosphatidylinositol 3-phosphate in EEs. Agonist stimulation of GPR84-Rluc8 leads to trafficking of the receptor to EEs, and ensuing increase of the donor concentration relative to the rGFP-FYVE acceptor anchored in the same cellular compartment, and thus results in an increase in BRET signal.
Plasmids—The cDNA clones for human GPR84 receptor, human Gai2, Gp1, and Gy2 were obtained from the cDNA Resource Center (www.cdna.org). GFP10 (F64L, S147P, S202F and H231L variant of Aequorea victoria Green Fluorescent Protein) gBlocks gene fragments (Integrated DNA Technologies, IA) and linker were inserted in frame at the N-terminus of human Gγ2. Rluc8 (A55T, C124A, S130A, K136R, A143M, M185V, M253L, and S287L variant of the Renilla renformis luciferase) gBlocks gene fragment was inserted with linkers in frame in between residues 91 and 92 of Gai2 or at the C-terminus of GPR84. The FYVE domain from human endofin (residues Q739 to K806) attached in frame at the C terminus of a humanized Renilla GFP (rGFP), were synthesized as gBlocks gene fragments.
Bioluminescence Resonance Energy Transfer (BRET) Measurement—HEK293 cells were transfected with GPR84-Rluc8 and rGFP-FYVE for the EEs trafficking biosensor or with GPR84, Gαi2-Rluc8, GFP10-Gγ2, and Gβ1 for the Gαi biosensor. The following day, transiently transfected cells were seeded in 96-well white clear bottom microplates coated with poly-D-lysine and left in culture for 24 hours. Cells were washed once with Tyrode's buffer (140 mmol/L NaCl, 1 mmol/L CaCl2, 2.7 mmol/L KCl, 0.49 mmol/L MgCl2, 0.37 mmol/L NaH2PO4, 5.6 mmol/L glucose, 12 mmol/L NaHCO3, and 25 mmol/L HEPES, pH 7.5) before performing assays in Tyrode's buffer. Test compounds were incubated with cells for 5 (Gαi) or 15 (EEs) minutes at 37° C. before addition of 200 nmol/L of the GPR84 agonist ZQ-16 (2-(Hexylthio)-6-hydroxy-4(3H)-pyrimidinone) for 5 minutes at room temperature (Gαi) or 30 minutes at 37° C. (EEs). The Rluc8 substrate coelenterazine 400A (Prolume, Lakeside, AZ) was added at a final concentration of 5 μmol/L and BRET readings were collected using an Infinite M1000 microplate reader (Tecan, Morrisville, NC). BRET^2 readings between Rluc8 and GFP10 or rGFP were collected by sequential integration of the signals detected in the 370 to 450 nm (Rluc8) and 510 to 540 nm (GFP10, rGFP) windows. The BRET signal was calculated as the ratio of light emitted by acceptor (GFP10, rGFP) over the light emitted by donor (Rluc8). The values were corrected to net BRET by subtracting the background BRET signal obtained in cells transfected with Rluc8 constructs alone. Ligand-promoted net BRET values were calculated by subtracting vehicle-induced net BRET from ligand-induced net BRET.

T1 sequence (Q9NQS5 whole entry): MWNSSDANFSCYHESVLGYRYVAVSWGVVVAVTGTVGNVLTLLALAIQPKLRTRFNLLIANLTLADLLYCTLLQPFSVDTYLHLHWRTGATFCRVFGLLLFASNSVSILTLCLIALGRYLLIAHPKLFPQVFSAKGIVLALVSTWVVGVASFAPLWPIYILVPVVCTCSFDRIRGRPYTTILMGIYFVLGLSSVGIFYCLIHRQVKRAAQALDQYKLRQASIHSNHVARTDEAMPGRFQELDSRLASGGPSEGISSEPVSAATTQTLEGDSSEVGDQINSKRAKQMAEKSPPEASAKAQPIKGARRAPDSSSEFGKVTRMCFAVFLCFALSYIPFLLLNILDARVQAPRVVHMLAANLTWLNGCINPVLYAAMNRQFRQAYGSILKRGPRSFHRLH

inhibition at 10 µM [%] | Structure (SMILES) | also measured
25 to 50 | Cc1cc(N2CCCC(O)C2)ccc1-c1cn(CC2CCCCO2)nn1 (stereo not drawn) [Compound I-450] | 
50 to 75 | Cc1cc(N2CCN(Cc3ccncn3)CC2)ccc1-c1cn(CC2CCCCO2)nn1 (stereo not drawn) [Compound I-565] | 
25 to 50 | Cc1cc(N2CC3(CN(Cc4ccccc4)C3)C2)ccc1-c1cn(CC2CCCCO2)nn1 (stereo not drawn) [Compound I-146] | 
> 75 | CC1(C)COC(Cn2cc(-c3ncc(C#CCNC4CC4)cc3OC3CC3)nn2)OC1 [Compound I-856] | 
≤ 25 | Cc1cc(C#CC2CC2)cnc1-c1cn(CC2CCOCC2)nn1 [Compound I-196] | 
> 75 | CCc1cc(N2CC(C)(O)C2)ccc1-c1cn(CC2OCC(C)(C)CO2)nn1 [Compound I-641] | IC50: 300 to 1000 nM
50 to 75 | CC(C)Oc1cc(C#CCNc2ccccc2)cnc1-c1cn(CC2CC(C)(C)CO2)nn1 (stereo not drawn) [Compound I-526] | IC50: ≤ 300 nM
> 75 | Cc1cc(C#CCN2CC(C)(C)C2)cnc1-c1cn(CC2Oc3ccccc3O2)nn1 [Compound I-627] | 
≤ 25 | Cc1ccc(N2CC(C)(C)C2)cc1Cc1cn(CC2CCCCO2)nn1 (stereo not drawn) [Compound I-443] | 
≤ 25 | Cc1cc(N2CCN(C3(c4ccccn4)CC3)CC2)ccc1-c1cn(CC2CCCCO2)nn1 (stereo not drawn) [Compound I-613] | 
> 75 | CN(C)c1cc(N2CC(C)(CO)C2)ccc1-c1cn(CC2OCC3(CCC3)O2)nn1 (stereo not drawn) [Compound I-728] | 
25 to 50 | CNC(C)(C)COc1ccc(-c2cn(CC3CCCCO3)nn2)c(C)c1 (stereo not drawn) [Compound I-288] | 
≤ 25 | COc1cccc(N(C)c2cn(CC3OCC(C)(C)CO3)nn2)c1 [Compound I-812] | 
25 to 50 | Cc1cc(C#CC2CC2)ccc1-c1cn(CC2CCCOC2)nn1 (stereo not drawn) [Compound I-364] | 
≤ 25 | COCC#Cc1cnc(-c2cn(CC3OCC4(CC4)CO3)nn2)c(OC2CC2)c1 [Compound I-833] | IC50: ≤ 300 nM
≤ 25 | Cc1noc(COc2ccc(-c3cn(CC4CCCCO4)nn3)c(C)c2)n1 (stereo not drawn) [Compound I-469] | 

The remaining lines, values behind:

Structure (SMILES) | inhibition at 10 µM [%] | also measured
CC1(C)COC(Cn2cc(-c3ncc(C#CC4CC4)cc3CO)nn2)OC1 [Compound I-738] |  | inhibition at 2 µM: ≤ 25%
Cc1cc(OCC(F)(F)F)cnc1-c1cn(CC2OCC(C)(C)O2)nn1 (stereo not drawn) [Compound I-639] | ≤ 25 | 
Cc1ccc(OCc2ccccn2)cc1Cc1cn(CC2CCCCO2)nn1 (stereo not drawn) [Compound I-444] | ≤ 25 | 
C(#CC1CC1)c1ccc(-c2cn(CCOCC3COCCO3)nn2)cc1 (stereo not drawn) [Compound I-93] | ≤ 25 | 
CC1(C)CN(c2ccc(-c3cn(CC4CCCCO4)nn3)c(Cl)c2)C1 (stereo not drawn) [Compound I-254] | 25 to 50 | 
Cc1cc(N2CC3(CCNCC3)C2)ccc1-c1cn(CC2CCCCO2)nn1 (stereo not drawn) [Compound I-154] | 25 to 50 | 
C=C(c1cn(C[C@H]2CCCCO2)nn1)c1cccc(C#CC2CC2)c1C [Compound I-742] | > 75 | 
Cc1cc(N2CC(C(C)(C)O)C2)ccc1-c1cn(CC2CCCCO2)nn1 (stereo not drawn) [Compound I-477] | 50 to 75 | 
Cc1cc(N2CC(C)(C)C2)c(Cl)cc1-c1cn(C[C@H]2CCCCO2)nn1 [Compound I-421] | > 75 | 
CC(C)Oc1cc(N2CC(C)(CO)C2)ccc1-c1cn(CC2OCC(C)(C)CO2)nn1 [Compound I-678] |  | inhibition at 2 µM: > 75%; IC50: 300 to 1000 nM
Cc1cc(C#CC2CC2)ccc1-c1cn(CC2OCCCO2)nn1 [Compound I-91] |  | IC50: 1000 to 3000 nM
Cc1cc(N2CC(C)(C)C2)cnc1-c1cn(CC2OCC(C)(C)CO2)cn1 [Compound I-726] | > 75 | 
Cc1cc(N2CCCC23CNC3)ccc1-c1cn(CC2CCCCO2)nn1 (stereo not drawn) [Compound I-150] | ≤ 25 | 
C(#CC1CC1)c1ccc(-c2cn(CC3CCCCO3)cn2)cc1 (stereo not drawn) [Compound I-333] |  | inhibition at 15 µM (HEK293, single concentration 15 μM (designated H)): ≤ 25%
COC(C)(c1cn(CC2CCCCO2)nn1)c1cc(C#CC2CC2)ccc1C (stereo not drawn) [Compound I-680] | 50 to 75 | 
Cc1cc(C#CC2CC2)ccc1-c1cn(C[C@@H]2CCCCO2)nn1 [Compound I-174] |  | inhibition at 5 µM (HEK293, single concentration 5 μM (designated D)): ≤ 25%; IC50: > 3000 nM
CN(c1ccc(C#N)cc1)c1cn(CC2OCC(C)(C)CO2)nn1 [Compound I-793, 4-((1-((5,5-dimethyl-1,3-dioxan-2-yl)methyl)-1H-1,2,3-triazol-4-yl)(methyl)amino)benzonitrile] |  | inhibition at 2 µM: > 75%
COC(c1cn(CC2CCCCO2)cn1)c1cc(C#CC2CC2)ccc1C (stereo not drawn) [Compound I-646] |  | inhibition at 2 µM: > 75%; IC50: 300 to 1000 nM
CC(C)Oc1cc(N2CC(C)(C)C2)ccc1-c1cn(CC2CCCCO2)nn1 (stereo not drawn) [Compound I-271] |  | inhibition at 2 µM: > 75%

Structure (SMILES) | inhibition at 10 µM [%] | also measured
Cc1cc(C#CCO)ccc1-c1cn(CC2OCC(F)(F)CO2)nn1 [Compound I-692] | 50 to 75 | 
Cc1ccc(Cl)cc1N(C)c1cn(CC2OCC3(CC3)CO2)nn1 [Compound I-844] | 50 to 75 | 
Cc1cc(N2CCN(C(=O)c3ccccc3)CC2)ccc1-c1cn(CC2CCCCO2)nn1 (stereo not drawn) [Compound I-236] | 50 to 75 | IC50: 1000 to 3000 nM
CN(C)c1cc(N2CC(C)(CO)C2)c(F)cc1-c1cn(CC2CC(C)(C)CO2)nn1 (stereo not drawn) [Compound I-710] |  | inhibition at 2 µM: > 75%; IC50: ≤ 300 nM
Cc1c(C#CC2CC2)cccc1-c1cn(CC2CCCCO2)nn1 (stereo not drawn) [Compound I-80] |  | inhibition at 25 µM (HEK293, single concentration 25 μM (designated I)): ≤ 25%
COC(c1cccc(C#CCO)c1)c1cn(CC2CCCCO2)nn1 (stereo not drawn) [Compound I-491] | ≤ 25 | 
CC(=O)c1ccc(C)c(N(C)c2cn(CC3OCC(C)(C)CO3)nn2)c1 [Compound I-825] |  | inhibition at 2 µM: > 75%
Cc1ccccc1C#Cc1cn(CC2OCC(C)(C)CO2)nn1 [Compound I-791] |  | inhibition at 2 µM: > 75%
Cc1cc(N2CC3(CNC3)C2)ccc1-c1cn(CC2CCCCO2)nn1 (stereo not drawn) [Compound I-182] | ≤ 25 | 
Cc1cc(C#CCN2CC(C)(C)C2)cnc1-c1cn(C[C@H]2CCCCO2)nn1 [Compound I-284] | > 75 | 
Cc1cc(C2CCOCC2)ccc1-c1cn(CC2CCCCO2)nn1 (stereo not drawn) [Compound I-485] | ≤ 25 | 
Cc1ccc(C#CC2CC2)nc1-c1cn(Cc2ncccn2)nn1 [Compound I-481] |  | inhibition at 2 µM: ≤ 25%
Cc1cc(C#CC2CC2)ccc1-c1cn(CC2CCC(=O)O2)nn1 (stereo not drawn) [Compound I-539] | ≤ 25 | 
Cc1cc(C#CCN2CCCN(C)CC2)ccc1-c1cn(CC2CCCCO2)nn1 (stereo not drawn) [Compound I-159] | ≤ 25 | 
Cc1cc(N2CCN(Cc3ccncc3)CC2)ccc1-c1cn(CC2CCCCO2)nn1 (stereo not drawn) [Compound I-549] | 50 to 75 | IC50: 1000 to 3000 nM
Cc1ccc(C#CC2CC2)cc1C1(c2cn(CC3OCC(C)(C)CO3)nn2)OCCO1 [Compound I-721] |  | inhibition at 2 µM: > 75%; IC50: 300 to 1000 nM
Cc1cc(N2CC(C)(C)C2)ccc1-c1cn(C[C@H]2CCCCO2)nn1 [Compound I-253] |  | inhibition at 3.3 µM (HEK293, single concentration 3.3 μM (designated C)): > 75%; IC50: ≤ 300 nM
Cc1cc(C#CC2CC2)ccc1-c1cn(Cc2nccs2)nn1 [Compound I-314] | 25 to 50 | 
CN(C)c1cc(N2CC(CO)(CO)C2)ccc1-c1cn(CC2OCC(C)(C)CO2)nn1 [Compound I-667] | > 75 | IC50: 300 to 1000 nM

— US12617777B2, “GPR84 antagonists and uses thereof” (Liminal BioSciences Limited, priority 2021, dated 2026)
